# According to patent US11607464B2, “Compositions and methods for the treatment and imaging of cancer” (BOARD OF REGENTS OF THE UNIVERSITY OF NEBRASKA, priority 2018, dated 2023):
# Columns and labels:
# [1] = system: NCI 60 cancer cells; experiment: NCI 60 cell five-dose screen; format: cell-based, human; settings: NCI 60 cell five-dose screen, FIG. 5
# From the text: FIG. 5 provides the concentrations (nanomole/liter) required to inhibit by 50% growth of cancer cells (GI50) as measured with the National Cancer Institute (NCI) 60 cell five-dose screen assay.
# The methodology and data analyses are described in detail at: dtp.cancer.gov/discovery_development/nci-60/methodology.
# [2] = Stability in human serum (HPLC); format: in vitro ADME
# Method: 4 (370 KBq-740 kBq) in 20 μL 25% EtOH/PB (10 mM PB, pH 6.1) was added to the solution of human serum (1980 μL). The mixture was briefly vortexed and kept up to 19 hours at ambient temperature or in the cell culture incubator (37° C., 5% CO2). At selected times, a 0.5-mL aliquot of the incubated mixture was withdrawn and analyzed by HPLC.
# An aliquot of the incubation mixture (0.5 mL) was treated with MeCN (0.5 mL) to precipitate proteins, vortexed and centrifuged (2,000 rpm, 15 minutes). Aliquots of the supernatant (500 μL) were acidified to pH˜6 with 0.05 M TFA (2-8 μL). The excess of MeCN was evaporated with a stream of nitrogen and 100 μL water added. This mixture was passed through a 0.2-μm filter and samples (˜100 μL, 62.5 kBq-130 kBq) were injected on HPLC system.
# The HPLC analyses proceeded on Luna C N (5μ, 4.6×250 mm) column. Eluent: solvent A potassium phosphate buffer (10 mM, pH 6.1), solvent B EtOH; all samples were eluted at 0.8 mL/minute, initially with a gradient of EtOH from 30% to 70% for 30 minutes, then from 70% to 95% over the next 15 minutes with detection of radioactivity and UV at 280 nm.
# [3] = system: BE(2)-C; experiment: Extracellular and intracellular D10 of cells exposed to ^131I-4; format: cell-based, human; settings: exposed for 48 hours
# Method: (§1) The cell uptake was tested as a function of the radioactive concentration and time of exposure. With each treatment group, triplicate flasks of controls cells in medium without the radioactive drug were grown and harvested alongside treated cells. Aliquots of the radioactive medium were reserved for gamma counting to assess the initial radioactive concentration. Each treatment was tested in triplicate in at least two independent experiments. Groups of treated cells were cultured in radioactive medium for 1 hour, 24 hours, 48 hours, and 72 hours and either harvested at these times or the radioactive medium was removed and replaced with the appropriate nonradioactive medium and then flasks were returned to the incubator for additional 24 hours. Radioactive medium was collected for radioactivity determination, monolayers were washed with ice-cold PBS. Cells used in the subcellular distribution experiments were harvested by scarping and cell numbers were determined. The subcellular distribution of radioactivity was determined as described before using NE-PER™ nuclear and cytoplasmic extraction reagents (Pierce Biotechnology, Rockford, Ill.).
# (§2) The cell uptake of ^131I-4 was tested as a function of the radioactive concentration and time of exposure. Groups of treated cells—BE(2)-C (neuroblastoma), SK-N-SH cells (neuroblastoma), and U-87 MG (glioblastoma)—were cultured in radioactive medium for 1 hour, 24 hours, 48 hours, and 72 hours.
# [4] = system: SK-N-SH; experiment: as above; format: cell-based, human; settings: exposed for 48 hours
# Method: as §1, §2
# [5] = system: U-87MG; experiment: as above; format: cell-based, human; settings: exposed for 48 hours
# Method: as §1, §2
# [6] = system: U-87 MG xenograft; experiment: U-87 MG xenograft therapy study in athymic mice; format: in vivo, athymic Ncr nu/nu mice
# Method: (§3) U-87MG cells were injected subcutaneously (SQ) in the dorsal area of the female and male 8-weeks old athymic Ncr nu/nu mice (n=10 per group). When tumor volume reached ˜150 mm^3 mice were randomized into treatment group and “sham” injected control group. The average tumor volumes on day 0 were 177±55 mm^3 and 141±25 mm^3 in the treatment group and untreated controls, respectively. Therapy mice received ^131I-4 at an average dose of 14.5±2.3 MBq/mouse. Tumor volumes and body weights were measured three times per week. When one tumor in control mice exceeded the volume of 3000 mm^3 (i.e., 10% of the body weight), the experiment was terminated. Necropsy was performed. Tumor weights and tumor-associated radioactivity were determined. Blood was collected and hemoglobin and hematocrit values were measured. Tumors sections were also analyzed by macroautoradiography.
# U-87MG cells were injected subcutaneously (SQ) in the dorsal area of the female and male 8-weeks old athymic Ncr nu/nu mice (n=10 per group). Therapy mice received ^131I-4 at an average dose of 14.5±2.3 MBq/mouse and tumor volumes and body weights were measured three times per week.
# [7] = system: BE(2)-C cells; experiment: Colony-forming assay, radiotoxicity of ^131I-radiolabeled drug; format: cell-based, human; settings: for surviving fraction: BE(2)-C
# Method: as §1
# (§4) Alongside all treatment groups, which included: drug alone (n=4), 4 Gy XRT alone (n=4), and drug+XRT (n=4), quadruplicate flasks of controls cells in medium containing DMSO were grown and harvested under identical culture conditions. Each treatment was tested in at least two independent experiments. The final concentration of DMSO was maintained at 0.5% in all flasks including controls. Cells grown in monolayers (50%-60% confluent) were irradiated at the dose of 4 Gy delivered at the dose rate of 1.36 Gy/minute in a Mark I 68A irradiator (J. L. Shepherd & Associates, San Fernando, Calif.). At designated times after treatment, cells were harvested, their numbers determined and plated at 200 and 500 live cells in duplicate or quadruplicate T25 flasks per each treatment. Cells were left undisturbed for ˜7 days after which time fresh medium was added and colonies were allowed to grow for up to 3 weeks. Colonies were washed with PBS, fixed with methanol, and stained with crystal violet. Briefly, colonies were washed with 5 mL ice-cold PBS, followed by 5 mL PBS/methanol (1:1; v/v), and fixed in 5 mL methanol for 10 minutes. Methanol was removed and flasks were left open to dry for a few hours. Crystal violet (3 mL; 0.25% in 1:1 PBS/methanol) was added to each flask to stain cells. After approximately 10 minutes, the dye was removed, flasks were rinsed with tap water followed by distilled water and were left to dry. Colonies were counted by two independent observers using the ImageJ software.
# [8] = system: SK-N-SH cells; experiment: as above; format: cell-based, human; settings: for surviving fraction: 0.35 MBq/mL
# Method: as §1, §4
# [9] = system: SK-N-SH neuroblastoma, BE(2)-C neuroblastoma, and U-87 MG glioblastoma; experiment: Survival of neuroblastoma and glioblastoma cells treated with ^131I-4; format: cell-based, human; settings: 0.185 MBq/mL and 0.35 MBq/mL, FIGS. 9A-9C
# Method: FIGS. 9A-9C provide images of SK-N-SH neuroblastoma (FIG. 9A), BE(2)-C neuroblastoma (FIG. 9B), and U-87 MG glioblastoma (FIG. 9C) untreated or treated with compound ^131I-4 at 0.185 MBq/mL and 0.35 MBq/mL. Graphs of the cell uptake and clonogenic survival of the cells are also provided.
# The survival of human neuroblastoma and glioblastoma cells either left untreated or treated with compound ^131I-4 at 0.185 MBq/mL and 0.35 MBq/mL was determined. The cell uptake and clonogenic survival of SK-N-SH neuroblastoma, BE(2)-C neuroblastoma, and U-87 MG glioblastoma was also determined (FIGS. 9A-9C).
# [10] = Hematocrit and hemoglobin in treated mice; format: in vivo, athymic Ncr nu/nu mice; settings: terminal necropsy after therapy
# Method: as §3
# The average and median weights of tumor extirpated from untreated control mice (NT) and ^131I-4 treated mice at the terminal necropsy after the therapy was also determined (FIG. 10A). Hematocrit and hemoglobin values in ^131I-4-treated and control (NT) mice were also determined (FIGS. 10B and 10C). FIGS. 10D and 10E also show macroautoradiography of sections of two tumors extirpated.
smiles,measurement,setting,value
"COC(=O)Nc1nc2ccc(C(=O)c3ccccc3)cc2[nH]1 [Compound 1, methyl N-(6-benzoyl-1H-benzimidazol-2-yl)carbamate]","GI50, concentration to inhibit growth of cancer cells by 50%",[1],nanomolar levels
"COC(=O)Nc1nc2cc(C(=O)c3cccc([131I])c3)ccc2[nH]1 [^125I-4, Methyl N-[5-(3′-[^125/131I]iodobenzoyl)-1H-benzimidazol-2-yl]carbamate]","stability in human serum, radioactive HPLC trace","[2]; 5 hours, 20° C.",exclusively non-degraded
same,"stability in human serum, radioactive HPLC trace","[2]; 17 hours, 37° C.",exclusively non-degraded
same,stability in human serum,[2]; up to 19 hours,stable
"COC(=O)Nc1nc2cc(C(=O)c3cccc([131I])c3)ccc2[nH]1 [^131I-4, Methyl N-[5-(3′-[^125/131I]iodobenzoyl)-1H-benzimidazol-2-yl]carbamate]",D10 extracellular,[3],0.176 MBq/mL
same,D10 intracellular,[3],"3,010 (395) decays/cell"
same,D10 intracellular,[3]; value (std err),0.36 (0.05) cpm/cell
same,D10 extracellular,[4],0.410 MBq/mL
same,D10 intracellular,[4],"7,620 (530) decays/cell"
same,D10 intracellular,[4]; value (std err),0.82 (0.09) cpm/cell
same,D10 extracellular,[5],0.740 MBq/mL
same,D10 intracellular,[5],"14,760 (2,550) decays/cell"
same,D10 intracellular,[5]; value (std err),1.73 (0.34) cpm/cell
same,tumor growth compared to untreated control mice,[6]; 14.5±2.3 MBq/mouse,dramatically decreases tumor growth
same,xenograft volume median,[6]; day 0 after treatment,122 mm^3
same,xenograft volume avg (std err),"[6]; day 0 after treatment, 14.5±2.3 MBq/mouse",177 (55) mm^3
same,xenograft volume median,[6]; day 4 after treatment,169 mm^3
same,xenograft volume avg (std err),"[6]; day 4 after treatment, 14.5±2.3 MBq/mouse",251 (88) mm^3
same,xenograft volume median,[6]; day 7 after treatment,281 mm^3
same,xenograft volume avg (std err),"[6]; day 7 after treatment, 14.5±2.3 MBq/mouse",277 (76) mm^3
same,xenograft volume median,[6]; day 9 after treatment,292 mm^3
same,xenograft volume avg (std err),"[6]; day 9 after treatment, 14.5±2.3 MBq/mouse",456 (165) mm^3
same,xenograft volume median,[6]; day 11 after treatment,320 mm^3
same,xenograft volume avg (std err),"[6]; day 11 after treatment, 14.5±2.3 MBq/mouse",444 (163) mm^3
same,tumor infiltration (macroautoradiography),[6]; sections of extirpated tumors,infiltrates tumors
same,surviving fraction,[7]; 24 hour exposure to 0.35 MBq,0.51±0.067
same,surviving fraction,[7]; 48 hour exposure to 0.35 MBq,0.06±0.02
same,surviving fraction,[7]; 72 hour exposure to 0.29 MBq,0.010±0.004
same,survivors,[7]; at higher concentrations,no survivors
same,surviving fraction,[8]; 24 hours,0.68±0.069
same,surviving fraction,[8]; 48 hours,0.08±0.04
same,colonies,[8]; 72 hour exposure,no colonies
same,"cytotoxicity, cell survival",[9],cytotoxic to neuroblastoma and glioblastoma cells
same,"adverse reactions in the blood (hematocrit, hemoglobin)",[10],adverse reactions in the blood were not observed
